ChEMBL document CHEMBL5214913, “Cysteine proteases as potential targets for anti-trypanosomatid drug discovery” (Bioorg Med Chem, 2021)
Where a SMILES comes first, the peptide text is derived from it. The star is where a group is joined. Cbz = O=C(OCc1ccccc1)*

What was measured:
Trypanosoma cruzi [1] = assay: Antiparasitic activity against Trypanosoma cruzi DM28c epimastigotes harboring TcMCA3 assessed reduction in parasite viability incubated for 72 hrs by MTT assay; type: functional, organism-based
Leishmania amazonensis = assay: Antileishmanial activity against Leishmania amazonensis promastigotes assessed as reduction in parasite survival measured after 48 hrs by Neubauer counting chamber based analysis; type: functional; details: read-out: LD50 (the source's name)
Trypanosoma cruzi [2] = assay: Antitrypanosomal activity against Trypanosoma cruzi Dm28c epimastigotes assessed as reduction in parasite viability incubated for 48 hrs by trypan blue staining based Neubauer counting chamber analysis; type: functional, organism-based
Trypanosoma cruzi [3] = assay: Antitrypanosomal activity against bloodstream Trypanosoma cruzi Y strain trypomastigote assessed as reduction in parasite viability incubated for 24 hrs by Neubauer chamber based analysis; type: functional, organism-based

SMILES	IC50 (Trypanosoma cruzi [1])	LC50 (Leishmania amazonensis)	IC50 (Trypanosoma cruzi [2])	IC50 (Trypanosoma cruzi [3])
C=CCc1cccc(/C=N/NC(=O)CN2CCN(Cc3ccccc3)CC2)c1O [PAC-1]	14 µM	–	–	–
CC(C)[C@H](NC(=O)OCc1ccccc1)C(=O)N[C@H](C=O)Cc1ccccc1 (Cbz-Val-Phe-aldehyde)	–	23.3 µM	31.7 µM	20.4 µM
